Measurements taken from patent US11957759B1, “Rapidly accelerated fibrosarcoma (RAF) degrading compounds and associated methods of use” (Arvinas Operations, Inc., priority 2022, dated 2024).

Columns and labels:
B-RAF G466V = target: T1, B-RAF G466V (Homo sapiens, UniProt P15056, G466V); test: Target protein degradation, assay D: T-Rex 293 cells, HA-BRAF_G466V, 384 well format; type: cell-based; conditions: T-Rex 293 HA-BRAF_G466V cells, 24 hours, Examples 83-269; for DC50: Assay D; for Dmax: T-REx-293, Assay D
T1 construct: expressed in transfected cells; host or cells: T-Rex 293 cells (Invitrogen #R71007)
T1 sequence (P15056 whole entry G466V): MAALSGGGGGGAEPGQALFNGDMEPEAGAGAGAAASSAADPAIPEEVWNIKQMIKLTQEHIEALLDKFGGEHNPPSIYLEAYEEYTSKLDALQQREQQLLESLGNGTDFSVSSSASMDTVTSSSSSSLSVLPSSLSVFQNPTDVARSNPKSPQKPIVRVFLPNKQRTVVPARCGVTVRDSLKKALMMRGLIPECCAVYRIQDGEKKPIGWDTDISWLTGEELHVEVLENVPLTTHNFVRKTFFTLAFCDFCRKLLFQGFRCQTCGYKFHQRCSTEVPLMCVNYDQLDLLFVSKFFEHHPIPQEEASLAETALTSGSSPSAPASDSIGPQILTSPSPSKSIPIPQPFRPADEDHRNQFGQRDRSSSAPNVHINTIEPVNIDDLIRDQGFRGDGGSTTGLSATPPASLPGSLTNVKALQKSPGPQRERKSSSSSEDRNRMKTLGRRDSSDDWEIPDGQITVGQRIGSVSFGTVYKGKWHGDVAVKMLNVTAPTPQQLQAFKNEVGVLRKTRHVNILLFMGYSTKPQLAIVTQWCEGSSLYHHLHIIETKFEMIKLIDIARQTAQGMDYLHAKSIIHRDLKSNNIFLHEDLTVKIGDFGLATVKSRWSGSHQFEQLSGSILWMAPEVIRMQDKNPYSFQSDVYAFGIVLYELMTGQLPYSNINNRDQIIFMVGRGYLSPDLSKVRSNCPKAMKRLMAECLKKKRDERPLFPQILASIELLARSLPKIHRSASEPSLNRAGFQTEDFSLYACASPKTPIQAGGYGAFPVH
Method: D. T-Rex 293 Cells (384 Well Format)
(§1) T-Rex 293 cells were purchased from Invitrogen (#R71007), and stably transfected with a pcDNA4/TO_HA-BRAF_G466V construct, using 400 ug Zeocin for selection. G466V cells are plated in DMEM media (Gibco #11965118) containing 10% FBS (Gibco #16000044), 1% penicillin-streptomycin (ThermoFisher #15140122), 1:250 zeocin (Invitrogen #R-25005), and 1 ng/mL doxycycline (Selleckchem #4163) at a density of 7,500 cells/well in 45 μl on PDL coated, black clear bottom 384 well plates (Corning #354663) and incubated at 37° C.+5% CO2 for 24 hours. The following day, PROTAC compounds in a 1:3 11 point dilution are diluted into DMEM media using an Agilent Bravo. 5 ul of PROTACs suspended in DMEM media are added to the cells, with a final assay concentration ranging from 300 nM to 5 pM in 0.5% DMSO. Plates are incubated at 37° C.+5% CO2 for 24 hours. At the end of treatment, media is aspirated, and cells are fixed in 50 uL 4% PFA (EMS #15710) in PBS++(PBS, 1 mM CaCl, 1 mM MgCl) at RT for 15 minutes. Cells are washed 2× with 60 uL PBS++ and permeabilized in 50 uL 1% Triton X-100 (Sigma #93443) in PBS++ for 5 minutes at RT. Cells are washed in PBS++ prior to blocking with 50 uL Licor blocking buffer (Licor #927-60001) for 1 hour at RT. HA-tagged BRAF was stained using 50 uL HA antibody (CST #3724) at 1:1000 in Licor blocking buffer for two hours at RT. Primary is aspirated before adding 50 ul of secondary antibody solution containing 1:1000 Hoechst (ThermoFisher #62249), 1:1000 HCS CellMask Deep Red Stain (ThermoFisher #H32721), and 1:5000 goat anti-rabbit IgG Alexa-Fluor 488 (ThermoFisher #A32731) in PBS++ for 1 hr at RT. Plates are washed 4× with 60 uL PBS++, then sealed with Adhesive Black Light Absorbing Film (VWR #89087-692) and imaged on the ThermoFisher CX7 PRO high content instrument. BRAF intensity is quantified in HCS Studio software (ThermoFisher), using a custom script, exported, analyzed using KNIME, and curve curation is performed in an ELN (Scilligence). Cell toxicity is measured via comparing number of nuclei in PROTAC treated wells to DMSO controls.
(§2) The concentration of an exemplary compound that leads to half maximal degradation (DC50) as well as the maximum degradation observed (Dmax, conventionally expressed as a percentage of control) is shown below in Table 2.

B-RAF V600E = target: T2, B-RAF V600E (Homo sapiens, UniProt P15056, V600E); test: Target protein degradation, assay C: T-Rex 293 cells, HA-BRAF_V600E, 384 well format; type: cell-based; conditions: T-Rex 293 HA-BRAF_V600E cells, 24 hours, Examples 83-269; for DC50: Assay C; for Dmax: T-REx-293, Assay C
T2 construct: expressed in transfected cells; host or cells: T-Rex 293 cells (Invitrogen #R71007)
T2 sequence (P15056 whole entry V600E): as the sequence (P15056 whole entry G466V) above, with V466G, V600E counted along it
Method: C. T-Rex 293 Cells (384 Well Format)
as §1, with “pcDNA4/TO_HA-BRAF_V600E” for “pcDNA4/TO_HA-BRAF_G466V”, “V600E” for “G466V”
as §2

Structure (SMILES) | DC50 (B-RAF G466V) [nM] | Dmax (B-RAF G466V) [%] | DC50 (B-RAF V600E) [nM] | Dmax (B-RAF V600E) [%]
N#Cc1c(NS(=O)(=O)N2CC[C@@H](F)C2)ccc(F)c1Oc1ccc2ncn(-c3cccc(C4CCN(CC5CCN(c6ccc7c(c6)CN([C@H]6CCC(=O)NC6=O)C7=O)CC5)CC4)c3)c(=O)c2c1 [Example 240, (3R)-N-(2-cyano-3-{[3-(3-{1-[(1-{2-[(3S)-2,6-dioxopiperidin-3-yl]-1-oxo-2,3-dihydro-1H-isoindol-5-yl}piperidin-4-yl)methyl]piperidin-4-yl}phenyl)-4-oxo-3,4-dihydroquinazolin-6-yl]oxy}-4-fluorophenyl)-3-fluoropyrrolidine-1-sulfonamide] | 1 to 10 | ≥ 70 | 5 to 50 | ≥ 70
N#Cc1c(NS(=O)(=O)N2CC[C@@H](F)C2)ccc(F)c1Oc1ccc2ncn(-c3cnc(N4CCN(CCN5CCN(c6ccc(C7CCC(=O)NC7=O)cc6F)CC5)CC4)nc3)c(=O)c2c1 (stereo partly drawn) [Example 175, (3R)-N-{2-cyano-3-[(3-{2-[4-(2-{4-[4-(2,6-dioxopiperidin-3-yl)-2-fluorophenyl]piperazin-1-yl}ethyl)piperazin-1-yl]pyrimidin-5-yl}-4-oxo-3,4-dihydroquinazolin-6-yl)oxy]-4-fluorophenyl}-3-fluoropyrrolidine-1-sulfonamide] | 1 to 10 | 35 to 70 | 5 to 50 | 35 to 70
N#Cc1c(NS(=O)(=O)N2CC[C@@H](F)C2)ccc(F)c1Oc1ccc2ncn(-c3cccc(N4CCCC(CN5CCN(c6ccc7c(c6)CN([C@H]6CCC(=O)NC6=O)C7=O)CC5)C4)c3)c(=O)c2c1 (stereo partly drawn) [Example 93, (3R)-N-(2-cyano-3-{[3-(3-{3-[(4-{2-[(3S)-2,6-dioxopiperidin-3-yl]-1-oxo-2,3-dihydro-1H-isoindol-5-yl}piperazin-1-yl)methyl]piperidin-1-yl}phenyl)-4-oxo-3,4-dihydroquinazolin-6-yl]oxy}-4-fluorophenyl)-3-fluoropyrrolidine-1-sulfonamide] | 1 to 10 | ≤ 35 | 50 to 500 | 35 to 70
COc1cc(-n2cnc3ccc(Oc4c(F)ccc(NS(=O)(=O)N5CC[C@@H](F)C5)c4C#N)cc3c2=O)ccc1N1CCN(CC2CCN(c3ccc4c(c3)CN(C3CCC(=O)NC3=O)C4=O)CC2)CC1 (stereo partly drawn) [Example 88, (3R)-N-{2-cyano-3-[(3-{4-[4-({1-[2-(2,6-dioxopiperidin-3-yl)-1-oxo-2,3-dihydro-1H-isoindol-5-yl]piperidin-4-yl}methyl)piperazin-1-yl]-3-methoxyphenyl}-4-oxo-3,4-dihydroquinazolin-6-yl)oxy]-4-fluorophenyl}-3-fluoropyrrolidine-1-sulfonamide] | ≤ 1 | 35 to 70 | 5 to 50 | ≤ 35
COc1cc(N2CCN(c3ccc(-n4cnc5ccc(Oc6c(F)ccc(NS(=O)(=O)N7CC[C@@H](F)C7)c6C#N)cc5c4=O)cn3)CC2)cc2c1C(=O)N(C1CCC(=O)NC1=O)C2=O (stereo partly drawn) [Example 139, (3R)-N-(2-cyano-3-{[3-(6-{4-[2-(2,6-dioxopiperidin-3-yl)-7-methoxy-1,3-dioxo-2,3-dihydro-1H-isoindol-5-yl]piperazin-1-yl}pyridin-3-yl)-4-oxo-3,4-dihydroquinazolin-6-yl]oxy}-4-fluorophenyl)-3-fluoropyrrolidine-1-sulfonamide] | > 30 | – | 5 to 50 | ≤ 35
N#Cc1c(NS(=O)(=O)N2CC[C@@H](F)C2)ccc(F)c1Oc1ccc2ncn(-c3ccc(N4CCC(CCCN5CCN(c6ccc7c(c6)C(=O)N(C6CCC(=O)NC6=O)C7=O)CC5)CC4)nc3)c(=O)c2c1 (stereo partly drawn) [Example 167, (3R)-N-{2-cyano-3-[(3-{6-[4-(3-{4-[2-(2,6-dioxopiperidin-3-yl)-1,3-dioxo-2,3-dihydro-1H-isoindol-5-yl]piperazin-1-yl}propyl)piperidin-1-yl]pyridin-3-yl}-4-oxo-3,4-dihydroquinazolin-6-yl)oxy]-4-fluorophenyl}-3-fluoropyrrolidine-1-sulfonamide] | 1 to 10 | ≤ 35 | 50 to 500 | 35 to 70
N#Cc1c(NS(=O)(=O)N2CC[C@@H](F)C2)ccc(F)c1Oc1ccc2ncn(-c3ccc(N4CCC(CN5CC6(C5)CN(c5ccc7c(c5)CN(C5CCC(=O)NC5=O)C7=O)C6)CC4)cc3)c(=O)c2c1 (stereo partly drawn) [Example 85, (3R)-N-{2-cyano-3-[(3-{4-[4-({6-[2-(2,6-dioxopiperidin-3-yl)-1-oxo-2,3-dihydro-1H-isoindol-5-yl]-2,6-diazaspiro[3.3]heptan-2-yl}methyl)piperidin-1-yl]phenyl}-4-oxo-3,4-dihydroquinazolin-6-yl)oxy]-4-fluorophenyl}-3-fluoropyrrolidine-1-sulfonamide] | 1 to 10 | 35 to 70 | 5 to 50 | 35 to 70
N#Cc1c(NS(=O)(=O)N2CC[C@@H](F)C2)ccc(F)c1Oc1ccc2ncn(-c3cnc(N4CCN(CCN5CCN(c6ccc7c(c6)CN(C6CCC(=O)NC6=O)C7=O)CC5)CC4)nc3)c(=O)c2c1 (stereo partly drawn) [Example 151, (3R)-N-{2-cyano-3-[(3-{2-[4-(2-{4-[2-(2,6-dioxopiperidin-3-yl)-1-oxo-2,3-dihydro-1H-isoindol-5-yl]piperazin-1-yl}ethyl)piperazin-1-yl]pyrimidin-5-yl}-4-oxo-3,4-dihydroquinazolin-6-yl)oxy]-4-fluorophenyl}-3-fluoropyrrolidine-1-sulfonamide] | 1 to 10 | 35 to 70 | 5 to 50 | 35 to 70
N#Cc1c(NS(=O)(=O)N2CC[C@@H](F)C2)ccc(F)c1Oc1ccc2ncn(-c3ccc(C4CCN(CC5CC6(CCN(c7ccc8c(c7)CN([C@H]7CCC(=O)NC7=O)C8=O)CC6)C5)C4)cc3)c(=O)c2c1 (stereo partly drawn) [Example 263, (3R)-N-(2-cyano-3-{[3-(4-{1-[(7-{2-[(3S)-2,6-dioxopiperidin-3-yl]-1-oxo-2,3-dihydro-1H-isoindol-5-yl}-7-azaspiro[3.5]nonan-2-yl)methyl]pyrrolidin-3-yl}phenyl)-4-oxo-3,4-dihydroquinazolin-6-yl]oxy}-4-fluorophenyl)-3-fluoropyrrolidine-1-sulfonamide] | 1 to 10 | ≥ 70 | 50 to 500 | ≥ 70
